# Reference: patent US12629370B2, “Treatment of prostate cancer” (Sumitomo Pharma Co., Ltd., priority 2016, dated 2026)
# Values joined by “and” are separate entries in the source; they are usually repeats but may differ in a detail not shown here. Equal values may be shown once.
# Legend:
# [1] = test system: patients with advanced prostate cancer; assay: Example 8: quality of life, Aging Male Survey (AMS); format: in vivo, human; conditions: for AMS total score, mean: Baseline
# Protocol: Quality of life (QoL) was assessed throughout the study and the follow-up period. The 25-item Prostate Cancer Module of the European Organization for Research and Treatment of Cancer Quality of Life Questionnaire (EORTC QLQ-PR25), Aging Male Survey (AMS), and core 30-item EORTC Quality of Life Questionnaire (EORTC QLQ-C30) were completed at screening, day 1 of weeks 5, 13, 25, 37, and 49, and, if applicable, at the follow-up visits.
# serum testosterone = assay: Example 9: serum testosterone, castration and recovery, neoadjuvant/adjuvant ADT to EBRT, versus degarelix; format: in vivo, human
# Protocol: Eligible male patients were aged ≥18 years with a histologically confirmed diagnosis of localized, intermediate-risk prostate cancer, for whom 6-month neoadjuvant and adjuvant androgen deprivation therapy (ADT) to external beam radiation therapy (EBRT) was indicated. The criteria for establishing intermediate-risk prostate cancer included the presence of one of the following, without any high-risk feature: T2b-T2c disease, Gleason score 7, or prostate-specific antigen (PSA) 10-20 ng/mL. […] Based on investigator discretion and clinical assessment of the patient's overall medical and disease status, participation was allowed for older patients with high-risk disease (e.g., based on Gleason score or tumor status) who were deemed likely to benefit from 6 months of neoadjuvant/adjuvant ADT.
# Both treatment arms received treatment for 24 weeks. […] EBRT began no later than day 1, week 17. […]
# Samples for testosterone, luteinizing hormone (LH), FSH, and PSA concentrations were taken at screening, on day 1 of the first week (additionally days 2 and 4 for testosterone and LH), and on day 1 of weeks 2, 3, 5, 9, 13, 17, 21, 25, 29, 33, and 37 thereafter.
# FSH = assay: Example 9: FSH; format: in vivo, human
# Protocol: (§1) Eligible male patients were aged ≥18 years with a histologically confirmed diagnosis of localized, intermediate-risk prostate cancer, for whom 6-month neoadjuvant and adjuvant androgen deprivation therapy (ADT) to external beam radiation therapy (EBRT) was indicated. The criteria for establishing intermediate-risk prostate cancer included the presence of one of the following, without any high-risk feature: T2b-T2c disease, Gleason score 7, or prostate-specific antigen (PSA) 10-20 ng/mL. Additional inclusion criteria included: EBRT scheduled to begin ≥12 weeks after baseline visit; screening serum testosterone >150 ng/dL (5.2 nmol/L); screening PSA concentration >2 ng/ml; body mass index ≥18.0 at screening or baseline (i.e., the subject's BMI prior to treatment commencing); Eastern Cooperative Oncology Group performance status of 0 or 1 at screening. Based on investigator discretion and clinical assessment of the patient's overall medical and disease status, participation was allowed for older patients with high-risk disease (e.g., based on Gleason score or tumor status) who were deemed likely to benefit from 6 months of neoadjuvant/adjuvant ADT. Most patients had intermediate-risk disease. However, a few patients, based on Gleason score or tumor, node, and metastasis staging system, were technically of higher than intermediate risk.
# (§2) Both treatment arms received treatment for 24 weeks. Patients remained on treatment for at least 12 weeks before the start of external beam radiation treatment (EBRT), which was initiated for most patients between Week 13, Day 1 and Week 15, Day 1. EBRT began no later than day 1, week 17.
# (§3) Patients were evaluated every 4 weeks during the treatment period (including day 1, week 25), at end of treatment (defined as week 29), during follow-up (week 33), and at end of study (EOS).
# (§4) Samples for testosterone, luteinizing hormone (LH), FSH, and PSA concentrations were taken at screening, on day 1 of the first week (additionally days 2 and 4 for testosterone and LH), and on day 1 of weeks 2, 3, 5, 9, 13, 17, 21, 25, 29, 33, and 37 thereafter. […] Suppression of FSH was less profound than that of LH, but consistent with the literature, and was greater than that observed with GnRH agonists.
# PSA = assay: Example 9: PSA; format: in vivo, human
# Protocol: as §1, §2, §3, §4
# FIG. 22 = assay: FIG. 22
# Description: Table printed on a drawing sheet, FIG. 22
# First reader's note: The rows 'Plasma' and 'Urine' are section headings giving the matrix; the raised marks a and c are printed, but their footnotes are not on the sheet, and the meaning of the values in brackets is not stated.)
# [2] = subjects with at least 24 weeks of treatment
smiles,measurement,setting,value
"CONC(=O)Nc1ccc(-c2sc3c(c2CN(C)C)c(=O)n(-c2ccc(OC)nn2)c(=O)n3Cc2c(F)cccc2F)cc1 [Compound 1, N-(4-(1-(2,6-difluorobenzyl)-5-((dimethylamino)methyl)-3-(6-methoxy-3-pyridazinyl)-2,4-dioxo-1,2,3,4-tetrahydrothieno[2,3-d]pyrimidin-6-yl)phenyl)-N′-methoxyurea]","AMS total score, mean",[1]; 80 mg QD,29.8
same,"AMS total score after treatment, mean percent change from baseline","[1]; 80 mg QD, EOS",21.9%
same,"AMS total score after treatment, mean percent change from baseline","[1]; 80 mg QD, EOT",30.5%
same,"AMS total score after treatment, mean percent change from baseline","[1]; 80 mg QD, Follow-up",31.8%
same,"AMS total score, mean percent change from baseline","[1]; 80 mg QD, W5, D1",3.9%
same,"AMS total score, mean percent change from baseline","[1]; 80 mg QD, W13, D1",14.8%
same,"AMS total score, mean percent change from baseline","[1]; 80 mg QD, W25, D1",20.3%
same,"AMS total score, mean percent change from baseline","[1]; 80 mg QD, W49, D1",30.1%
same,"AMS total score, mean",[1]; 120 mg QD,29.9
same,"AMS total score after treatment, mean percent change from baseline","[1]; 120 mg QD, EOS",25.3%
same,"AMS total score after treatment, mean percent change from baseline","[1]; 120 mg QD, Follow-up",25.2%
same,"AMS total score, mean percent change from baseline","[1]; 120 mg QD, W5, D1",10.9%
same,"AMS total score, mean percent change from baseline","[1]; 120 mg QD, W13, D1",17.3%
same,"AMS total score, mean percent change from baseline","[1]; 120 mg QD, W25, D1",20.4%
same,"AMS total score, mean percent change from baseline","[1]; 120 mg QD, W37, D1",24.5%
same,"AMS total score, mean percent change from baseline","[1]; 120 mg QD, W49, D1",24.4%
same,"QOL (AMS, EORTC QLQ-PR25 sexual activity) during 12 week recovery",[1]; after discontinuation of 48 weeks of treatment,appeared to improve more in the Compound 1 group than the leuprorelin group
same,visit by which average serum testosterone decreased below medical castration threshold of 50 ng/dL,serum testosterone; 120 mg QD after 320 mg load,Day 4
same,visit by which average serum testosterone decreased below profound castration threshold of 20 ng/dl,serum testosterone; 120 mg QD after 320 mg load,Week 5 Day 1
same,"Kaplan-Meier estimate (95% CI) of testosterone recovery, probability of event",serum testosterone; 4 weeks from last dose,0.03 (0.00.0.08)
same,Percent recovery (95% CI) to baseline testosterone or >280 ng/dL,serum testosterone; 4 weeks from last dose,3.1 (0.4.10.7) %
same,"Kaplan-Meier estimate (95% CI) of testosterone recovery, probability of event",serum testosterone; 8 weeks from last dose,0.24 (0.13.0.34)
same,Percent recovery (95% CI) to baseline testosterone or >280 ng/dL,serum testosterone; 8 weeks from last dose,23.1 (13.5.35.2) %
same,"Kaplan-Meier estimate (95% CI) of testosterone recovery, probability of event",serum testosterone; 12 weeks from last dose,045 (0.33.0.58)
same,Median testosterone,serum testosterone; Baseline,355.7 ng/dL
same,Testosterone Median,serum testosterone; Baseline,12.350 nmol/L
same,Testosterone Mean (Std Dev),"serum testosterone; Baseline, Compound 1 120 mg QD or degarelix 80 mg Q4W",14.067 (6.7100) nmol/L
same,Testosterone Median,serum testosterone; EOS,8.920 nmol/L
same,Testosterone Mean (Std Dev),serum testosterone; EOT,5.117 (5.7671) nmol/L
same,Testosterone Median,serum testosterone; EOT,3.260 nmol/L
same,Testosterone Mean (Std Dev),serum testosterone; Follow-Up,9.889 (6.3879) nmol/L
same,Testosterone Median,serum testosterone; Follow-Up,8.275 nmol/L
same,time after start of dosing at which serum testosterone was on average below medical castration levels,serum testosterone; Week 1 Day 4,72 h
same,Median testosterone,serum testosterone; Week 24,8.1 ng/dL
same,Testosterone Mean (Std Dev),"serum testosterone; Week 25, Day 1",0.395 (0.5584) nmol/L
same,Testosterone Median,"serum testosterone; Week 25, Day 1",0.280 nmol/L
same,Median testosterone,serum testosterone; Week 28/EOT visit,93.9 ng/dL
same,Median testosterone,serum testosterone; Week 32/follow-up,238.3 ng/dL
same,Median testosterone,serum testosterone; Week 36/EOS,256.9 ng/dL
same,patients recovered to baseline testosterone or >280 ng/dL,serum testosterone; by 8 weeks of follow-up,Nearly half
same,patients recovered to baseline testosterone or greater than 280 ng/dL,serum testosterone; end of 12-week follow-up,approximately half
same,mean serum testosterone after removal of therapy,serum testosterone; follow-up visit and end of study,approximately 10 nmol/L
same,Median time to medical castration (≤50 ng/dL),serum testosterone; in vivo,4 days
same,Median time to profound castration (≤20 ng/dL),serum testosterone; in vivo,15 days
same,medical castration rate (less than 50 ng/dL),"serum testosterone; over 24 weeks, overall",95%
same,profound castration rate (less than 20 ng/dL),"serum testosterone; over 24 weeks, overall",82%
same,Testosterone recovery (baseline or >280 ng/dL): number with events,serum testosterone; overall safety population,34 (52) n (%)
same,Testosterone recovery: number censored,serum testosterone; overall safety population,30 (46) n (%)
same,"Time to testosterone recovery, 25th percentile (95% CI)",serum testosterone; overall safety population,57 (45.62) days
same,"Time to testosterone recovery, 75th percentile (95% CI)",serum testosterone; overall safety population,127 (93.127) days
same,"Time to testosterone recovery, Median (95% CI)",serum testosterone; overall safety population,"91 (62, 127) days and 91 (62.127) days"
same,median (95% CI) number of days to testosterone recovery,serum testosterone; patients treated for at least 24 weeks,"86 (58, 93) days"
same,medical castration rate (less than 50 ng/dL),serum testosterone; [2],98%
same,profound castration rate (less than 20 ng/dL),serum testosterone; [2],84%
same,FSH level before administration,FSH; Baseline,11.826 IU/L
same,FSH level,"FSH; Week 2, Day 1",2.363 IU/L
same,mean FSH level,"FSH; Week 25, Day 1",1.475 IU/L
same,Median PSA,PSA; Baseline,7.3 µg/L
same,Median PSA,PSA; Week 24,0.07 µg/L
same,Median PSA,PSA; Week 28/EOT visit,0.07 µg/L
same,Median PSA,PSA; Week 32/follow-up,0.2 µg/L
same,Median PSA,PSA; Week 36/EOS,0.2 µg/L
same,average PSA level,PSA; by Week 13 Day 1 visit,< 0.2 ng/mL
same,patients achieving PSA values less than 0.2 ng/ml,PSA; by the end of 12 weeks,6 of 30
same,PSA % responses in most patients,"PSA; end of 8 weeks of dosing, before radiation therapy",exceed 89%
same,AUC0-24 (ng•h/mL),FIG. 22,1358 (53.1) ng•h/mL and 1878 (51.9) ng•h/mL
same,CLr (L/h),FIG. 22,7.29 (13.2) L/h and 7.25 (36.2) L/h and 7.36 (25.9) L/h
same,Fe (%),FIG. 22,0.934 (39.4) % and 2.20 (74.7) % and 2.61 (62.3) % and 3.43 (29.4) %
